From patent publication US10100282B2, “Differentiation of pluripotent cells” (FUJIFILM Cellular Dynamics, Inc., priority 2009, dated 2018)

Tested on: hESCs
Assay: Cytokine matrix: serum-free EB hematopoietic differentiation, surface markers by flow cytometry
Format: cell-based, human
Experimental: Cells were collected from each well/condition and washed once with media. The cell pellet was digested using TrypLE™ or 0.5% trypsin for 5-10 minutes in a 37° C. incubator followed by washes with media and passage through a 70-μm cell strainer. […] Non-viable cells were excluded with 7-aminoactinomycin D (7-AAD, BD Biosciences). Live cell analysis was performed on a FACSCalibur™ or Accuri flow cytometer and Cell Quest software. hESCs adapted to feeder free growth on matrigel maintained using mTESR were preconditioned for three days in the presence of X-vivo-15 containing 0.1 ng/ml TGF-β and 20 ng/ml FGF-2. Cells were harvested using TrypLE for 6 minutes at 37 C. TrypLE™ was neutralized using EB basal media containing 1 μM ROCK inhibitor (H-1152), Soybean trypsin inhibitor (0.25 mg/ml). The cells were washed once in EB basal media containing 1 μM ROCK inhibitor and soybean trypsin inhibitor (0.25 mg/ml). The cells were plated in low attachment plates in EB basal media containing 1 μM ROCK inhibitor and soybean trypsin inhibitor (0.25 mg/ml). The media was changed the next day to EB basal media containing different cytokine formulations. […] The cytokine combinations used are listed below in Table 3. The EB cultures were half fed with fresh differentiation media every two days. The EB cultures were harvested on day 8, 12 and 17 of differentiation. The EB cultures were harvested by spinning down all the cells and digesting the EBs with TrypLE™ or 0.5% trypsin. The phenotype of the progenitor cell types was analyzed by flow cytometry and the cells were plated in methylcellulose media for CFU assays. “FLT3” refers to the Flt3 ligand below.

## EPO: Erythropoietin
DAY 8, factor ABSENT
  CD31 expressing cells: 0.8%
  CD34 expressing cells: 1.2%
  CD43 expressing cells: 1.0%
  CD45 expressing cells: 0.2%
  FLK-1 expressing cells: 2.2%
DAY 8, factor PRESENT
  CD31 expressing cells: 0.7%
  CD34 expressing cells: 1.1%
  CD43 expressing cells: 0.8%
  CD45 expressing cells: 0.2%
  FLK-1 expressing cells: 1.7%
DAY 12, factor ABSENT
  CD31 expressing cells: 2.2%
  CD34 expressing cells: 2.4%
  CD43 expressing cells: 2.1%
  CD45 expressing cells: 2.6%
  FLK-1 expressing cells: 0.8%
DAY 12, factor PRESENT
  CD31 expressing cells: 1.8%
  CD34 expressing cells: 2.0%
  CD43 expressing cells: 2.4%
  CD45 expressing cells: 1.5%
  FLK-1 expressing cells: 0.2%
DAY 17, factor ABSENT
  CD31 expressing cells: 4.6%
  CD34 expressing cells: 2.5%
  CD43 expressing cells: 5.0%
  CD45 expressing cells: 4.8%
  FLK-1 expressing cells: 1.6%
DAY 17, factor PRESENT
  CD31 expressing cells: 8.8%
  CD34 expressing cells: 2.4%
  CD43 expressing cells: 9.1%
  CD45 expressing cells: 8.9%
  FLK-1 expressing cells: 2.1%

## GMCSF: Granulocyte-macrophage colony-stimulating factor
DAY 8, factor ABSENT
  CD31 expressing cells: 0.4%
  CD34 expressing cells: 1.0%
  CD43 expressing cells: 0.3%
  CD45 expressing cells: 0.2%
  FLK-1 expressing cells: 2.2%
DAY 8, factor PRESENT
  CD31 expressing cells: 1.1%
  CD34 expressing cells: 1.3%
  CD43 expressing cells: 1.4%
  CD45 expressing cells: 0.2%
  FLK-1 expressing cells: 1.7%
DAY 12, factor ABSENT
  CD31 expressing cells: 1.5%
  CD34 expressing cells: 1.0%
  CD43 expressing cells: 1.4%
  CD45 expressing cells: 1.3%
  FLK-1 expressing cells: 0.6%
DAY 12, factor PRESENT
  CD31 expressing cells: 2.4%
  CD34 expressing cells: 2.4%
  CD43 expressing cells: 3.0%
  CD45 expressing cells: 2.6%
  FLK-1 expressing cells: 0.4%
DAY 17, factor ABSENT
  CD31 expressing cells: 1.6%
  CD34 expressing cells: 2.1%
  CD43 expressing cells: 1.4%
  CD45 expressing cells: 0.9%
  FLK-1 expressing cells: 1.4%
DAY 17, factor PRESENT
  CD31 expressing cells: 11.3%
  CD34 expressing cells: 2.8%
  CD43 expressing cells: 12.1%
  CD45 expressing cells: 12.3%
  FLK-1 expressing cells: 2.3%
Serum free hematopoietic differentiation, days 8, 12, 17
  role during EB differentiation: play a role during later stages of EB differentiation

## IL6: Interleukin-6, a pro-inflammatory cytokine
DAY 8, factor ABSENT
  CD31 expressing cells: 0.8%
  CD34 expressing cells: 0.9%
  CD43 expressing cells: 0.8%
  CD45 expressing cells: 0.2%
  FLK-1 expressing cells: 1.2%
DAY 8, factor PRESENT
  CD31 expressing cells: 0.8%
  CD34 expressing cells: 1.4%
  CD43 expressing cells: 1.0%
  CD45 expressing cells: 0.2%
  FLK-1 expressing cells: 2.6%
DAY 12, factor ABSENT
  CD31 expressing cells: 1.4%
  CD34 expressing cells: 1.7%
  CD43 expressing cells: 1.2%
  CD45 expressing cells: 1.5%
  FLK-1 expressing cells: 0.5%
DAY 12, factor PRESENT
  CD31 expressing cells: 2.5%
  CD34 expressing cells: 2.6%
  CD43 expressing cells: 3.2%
  CD45 expressing cells: 2.4%
  FLK-1 expressing cells: 0.5%
DAY 17, factor ABSENT
  CD31 expressing cells: 3.8%
  CD34 expressing cells: 1.8%
  CD43 expressing cells: 4.1%
  CD45 expressing cells: 4.1%
  FLK-1 expressing cells: 1.1%
DAY 17, factor PRESENT
  CD31 expressing cells: 9.4%
  CD34 expressing cells: 3.0%
  CD43 expressing cells: 9.9%
  CD45 expressing cells: 9.6%
  FLK-1 expressing cells: 2.5%

## SCF: Stem cell factor, a cytokine which binds CD117 (c-Kit)
DAY 8, factor ABSENT
  CD31 expressing cells: 0.7%
  CD34 expressing cells: 0.8%
  CD43 expressing cells: 0.8%
  CD45 expressing cells: 0.2%
  FLK-1 expressing cells: 1.9%
DAY 8, factor PRESENT
  CD31 expressing cells: 0.9%
  CD34 expressing cells: 1.5%
  CD43 expressing cells: 1.0%
  CD45 expressing cells: 0.2%
  FLK-1 expressing cells: 2.0%
DAY 12, factor ABSENT
  CD31 expressing cells: 1.3%
  CD34 expressing cells: 1.7%
  CD43 expressing cells: 1.2%
  CD45 expressing cells: 1.5%
  FLK-1 expressing cells: 0.3%
DAY 12, factor PRESENT
  CD31 expressing cells: 2.6%
  CD34 expressing cells: 2.6%
  CD43 expressing cells: 3.2%
  CD45 expressing cells: 2.4%
  FLK-1 expressing cells: 0.6%
DAY 17, factor ABSENT
  CD31 expressing cells: 3.9%
  CD34 expressing cells: 2.3%
  CD43 expressing cells: 4.1%
  CD45 expressing cells: 4.0%
  FLK-1 expressing cells: 1.4%
DAY 17, factor PRESENT
  CD31 expressing cells: 9.3%
  CD34 expressing cells: 2.6%
  CD43 expressing cells: 9.8%
  CD45 expressing cells: 9.6%
  FLK-1 expressing cells: 2.2%

## TPO: Thrombopoietin, a glycoprotein hormone
DAY 8, factor ABSENT
  CD31 expressing cells: 0.8%
  CD34 expressing cells: 1.0%
  CD43 expressing cells: 1.0%
  CD45 expressing cells: 0.2%
  FLK-1 expressing cells: 1.9%
DAY 8, factor PRESENT
  CD31 expressing cells: 0.8%
  CD34 expressing cells: 1.3%
  CD43 expressing cells: 0.8%
  CD45 expressing cells: 0.2%
  FLK-1 expressing cells: 1.9%
DAY 12, factor ABSENT
  CD31 expressing cells: 2.3%
  CD34 expressing cells: 2.2%
  CD43 expressing cells: 2.2%
  CD45 expressing cells: 2.6%
  FLK-1 expressing cells: 0.7%
DAY 12, factor PRESENT
  CD31 expressing cells: 1.7%
  CD34 expressing cells: 2.2%
  CD43 expressing cells: 2.3%
  CD45 expressing cells: 1.5%
  FLK-1 expressing cells: 0.3%
DAY 17, factor ABSENT
  CD31 expressing cells: 4.8%
  CD34 expressing cells: 2.5%
  CD43 expressing cells: 4.8%
  CD45 expressing cells: 4.9%
  FLK-1 expressing cells: 1.7%
DAY 17, factor PRESENT
  CD31 expressing cells: 8.6%
  CD34 expressing cells: 2.4%
  CD43 expressing cells: 9.2%
  CD45 expressing cells: 8.8%
  FLK-1 expressing cells: 2.0%

B1: GCSF: granulocyte colony-stimulating factor (protein, UniProt P09919 31-207, looked up)
Granulocyte …: TPLGPASSLPQSFLLKCLEQVRKIQGDGAALQEKLVSECATYKLCHPEELVLLGHSLGIPWAPLSSCPSQALQLAGCLSQLHSGLFLYQGLLQALEGISPELGPTLDTLQLDVADFATTIWQQMEELGMAPALQPTQGAMPAFASAFQRRAGGVLVASHLQSFLEVSYRVLRHLAQP
DAY 8, factor ABSENT
  CD31 expressing cells: 0.8%
  CD34 expressing cells: 1.2%
  CD43 expressing cells: 1.0%
  CD45 expressing cells: 0.2%
  FLK-1 expressing cells: 2.2%
DAY 8, factor PRESENT
  CD31 expressing cells: 0.7%
  CD34 expressing cells: 1.1%
  CD43 expressing cells: 0.8%
  CD45 expressing cells: 0.2%
  FLK-1 expressing cells: 1.7%
DAY 12, factor ABSENT
  CD31 expressing cells: 2.2%
  CD34 expressing cells: 2.4%
  CD43 expressing cells: 2.3%
  CD45 expressing cells: 2.6%
  FLK-1 expressing cells: 0.7%
DAY 12, factor PRESENT
  CD31 expressing cells: 1.8%
  CD34 expressing cells: 2.0%
  CD43 expressing cells: 2.3%
  CD45 expressing cells: 1.5%
  FLK-1 expressing cells: 0.4%
DAY 17, factor ABSENT
  CD31 expressing cells: 4.8%
  CD34 expressing cells: 2.7%
  CD43 expressing cells: 4.9%
  CD45 expressing cells: 4.9%
  FLK-1 expressing cells: 1.6%
DAY 17, factor PRESENT
  CD31 expressing cells: 8.6%
  CD34 expressing cells: 2.2%
  CD43 expressing cells: 9.1%
  CD45 expressing cells: 8.8%
  FLK-1 expressing cells: 2.1%
